Measured values published in the supplement of paper PMC10307832.

Key:
Assay in all cases: relative viability (nuclei count vs DMSO), 5 days (fraction); higher = more cells survive
Nelarabine + Pictilisib = compound: COc1nc(N)nc2c1ncn2[C@@H]1O[C@H](CO)[C@@H](O)[C@@H]1O [Nelarabine] + CS(=O)(=O)N1CCN(Cc2cc3nc(-c4cccc5[nH]ncc45)nc(N4CCOCC4)c3s2)CC1 [Pictilisib] (partner 1 µM)
Outline: (§1)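 For relative viability, nuclei counts in treated wells were divided by those in vehicle wells. Lung cancer cell lines had been pin-tool dosed in 1536-well plates the day after seeding and cultured for 5 days, then fixed and stained in one step (final 0.05% Triton X-100, 1% formaldehyde, 1 ug/ml Hoechst) and imaged at 4×. Doses were one drug alone or a fixed anchor-drug dose plus five library-drug doses (not always all listed) in √10 steps, and values are duplicate-plate medians.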

[1] = compound: C=CCn1c(=O)c2cnc(Nc3ccc(N4CCN(C)CC4)cc3)nc2n1-c1cccc(C(C)(C)O)n1 [Adavosertib] + CC(=O)c1c(C)c2cnc(Nc3ccc(N4CCNCC4)cn3)nc2n(C2CCCC2)c1=O [Palbociclib] (partner 0.5 µM)
Outline: as §1

Adavosertib + Alpelisib = compound: C=CCn1c(=O)c2cnc(Nc3ccc(N4CCN(C)CC4)cc3)nc2n1-c1cccc(C(C)(C)O)n1 [Adavosertib] + Cc1nc(NC(=O)N2CCC[C@H]2C(N)=O)sc1-c1ccnc(C(C)(C)C(F)(F)F)c1 [Alpelisib] (partner 2 µM)
Outline: as §1

Nelarabine + Pemetrexed = compound: COc1nc(N)nc2c1ncn2[C@@H]1O[C@H](CO)[C@@H](O)[C@@H]1O [Nelarabine] + Nc1nc2[nH]cc(CCc3ccc(C(=O)N[C@@H](CCC(=O)O)C(=O)O)cc3)c2c(=O)[nH]1 [Pemetrexed] (partner 0.2 µM)
Outline: as §1

Cell Line	relative viability (Nelarabine + Pictilisib; first compound 0.01 µM)	relative viability (Nelarabine + Pictilisib; first compound 0.03162 µM)	relative viability (Nelarabine + Pictilisib; first compound 0.1 µM)	relative viability (Nelarabine + Pictilisib; first compound 0.3162 µM)	relative viability (Nelarabine + Pictilisib; first compound 1 µM)	relative viability ([1]; first compound 0.01 µM)	relative viability ([1]; first compound 0.03162 µM)	relative viability ([1]; first compound 0.1 µM)	relative viability ([1]; first compound 0.3162 µM)	relative viability (Adavosertib + Alpelisib; first compound 0.01 µM)	relative viability (Adavosertib + Alpelisib; first compound 0.03162 µM)	relative viability (Adavosertib + Alpelisib; first compound 0.1 µM)	relative viability (Adavosertib + Alpelisib; first compound 0.3162 µM)	relative viability (Nelarabine + Pemetrexed; first compound 0.01 µM)	relative viability (Nelarabine + Pemetrexed; first compound 0.03162 µM)	relative viability (Nelarabine + Pemetrexed; first compound 0.1 µM)	relative viability (Nelarabine + Pemetrexed; first compound 0.3162 µM)	relative viability (Nelarabine + Pemetrexed; first compound 1 µM)
PC-14	1.17	0.759	0.563	0.815	0.653	0.508	0.577	0.516	0.0749	0.944	0.883	0.948	0.493	0.136	0.138	0.125	0.142	0.158
NCI-H1355	0.484	0.366	0.335	0.465	0.478	0.417	0.401	0.395	0.408	0.878	0.84	0.777	0.751	1.12	1.05	1.02	1.15	1.08
NCI-H460	0.408	0.431	0.379	0.407	0.337	0.182	0.19	0.181	0.125	0.543	0.518	0.374	0.21	0.0547	0.0633	0.0599	0.0615	0.0625
NCI-H1651	0.683	0.476	0.63	0.699	0.736	0.499	0.523	0.572	0.612	0.833	1.06	0.936	0.687	0.406	0.548	0.63	0.643	0.564
NCI-H1734	0.561	0.538	0.516	0.479	0.452	0.332	0.326	0.353	0.375	0.728	0.69	0.707	0.624	0.416	0.473	0.368	0.48	0.464
NCI-H661	0.345	0.362	0.462	0.388	0.354	0.424	0.449	0.464	0.451	0.492	0.968	0.503	0.595	0.963	1.07	0.865	0.899	0.899
H3255	0.534	0.494	0.456	0.394	0.477	0.317	0.341	0.333	0.32	0.648	0.689	0.716	0.668	0.531	0.571	0.557	0.551	0.571
NCI-H1437	0.465	0.356	0.373	0.426	0.47	0.333	0.313	0.305	0.35	1.01	1.02	0.897	0.977	0.344	0.359	0.301	0.39	0.323
NCI-H2228	0.275	0.235		0.452	0.268		0.746	0.62	0.545	0.839	0.694	0.829	0.343	0.342	0.346	0.269	0.374	0.4
CAL-12T	0.393	0.642	0.365	0.494	0.423	0.403	0.492	0.425	0.262	1.09	1.27	1.2	0.929	1.55	1.19	1.42	1.2	1.22
LCLC-103H	0.756	0.811	0.62	0.671	0.652	0.498	0.478	0.469	0.464	0.973	0.926	1.04	0.94	0.467	0.447	0.464	0.446	0.478
NCI-H1792	0.348		0.323	0.326	0.323		0.661	0.779	0.829	0.67	0.649	0.697	0.48	1.09	0.658	1.58	0.937	0.824
NCI-H2347	0.555	0.303	0.766	0.726	0.606	0.41	0.419	0.444	0.44	1.06	1.02	1.04	0.975	0.423	0.425	0.427	0.447	0.397
NCI-H3122	0.588	0.388		0.63	0.611	0.216	0.198	0.184	0.213	0.763	0.656	0.83	0.84	0.194	0.18		0.204	0.195
NCI-H1793	0.367	0.35	0.293	0.314	0.256	0.293	0.293	0.298	0.275	0.746	0.6	0.752	0.637	1.04		1.07	0.962	0.88
NCI-H358	0.374	0.3	0.294	0.362	0.328	0.15	0.137	0.0992	0.128	0.831	0.769	0.693	0.336	0.181	0.227	0.161	0.172	0.328
HOP-62	0.833	0.743	0.815	0.574	0.706	0.496	0.513	0.59	0.486	0.924	1.02	1.14	0.955	0.412	0.347	0.307	0.318	0.33
NCI-H1944	0.369	0.322	0.339	0.399	0.366	0.298	0.317	0.317	0.319	0.822	0.774	0.645	0.666	0.659	0.584	0.589	0.617	0.61
